“And” between values parts separate entries of the source, which are not always exact repeats. Equal values may be shown once. Marks after values point to notes of the source that are not given here.
Legend:
[1] = target: T1, D27N XylE (Escherichia coli, UniProt P0AGF4, D27N); test: SSM-based electrophysiology, transport-deficient mutant D27N XylE (PSS currents, electrogenic binding); format: biochemical
T1 construct: made in house; host or cells: E. coli BL21 DE3
Experimental: (§1) Reconstitution of purified proteins (2–20 mg/ml) was carried out with E. coli phospholipids (Avanti Polar Lipids, E. coli polar lipid extract). Preformed liposomes (0.2–2 ml, 10 mg/ml) were dissolved in 1% (w/v) n-octyl-β-D-glucoside, and the protein suspension was mixed on ice to a concentration of 0.2 mg protein/mg lipid (LPR 5).
(§2) Wt XylE, wt FucP, and the mutant proteins were reconstituted using overnight incubation in 400 mg/ml BioBeads (SM-2 Adsorbent Media, Bio-Rad) at 4 °C. After reconstitution, the samples were diluted to 2.5 mg/ml lipid concentration, frozen in liquid nitrogen, and stored at −80 °C. For wt LacY and mutant proteins, this procedure was not successful. We, therefore, applied the previously established n-octyl-β-D-glucoside dilution method (1:100) ([69]).
(§3) SSM measurements were performed as described ([20], [23]). After thawing the sample and sonication in a water bath, 30 μl of proteoliposomes (2.5 mg/ml lipid at LPR 5) was allowed to adsorb for 1 to 2 h to an octadecanethiol/phosphatidylcholine hybrid bilayer on a gold surface (the sensor).
(§4) For measurements, a single solution exchange configuration ([23]) was employed that consisted in three phases of 0.5 s duration each: Flow of nonactivating solution (NA), activating solution (A), and nonactivating solution (NA). Only the activating solution contained the sugar. When pH dependence is determined, pH of NA and A solutions during one experiment are kept constant. Between experiments using different pH values, the sensor was incubated at the new pH for 3 min to equilibrate the intraliposomal pH.
(§5) Instruments with different time resolution were used as required. […] Currents were recorded throughout the entire time and amplified with a current amplifier set to a gain of […] and a rise time of 10 ms (low time-resolution set up) or 3 ms (high time-resolution set up).
(§6) All NA solutions were buffered in 100 mM KPi at a given pH value. NA solutions used with LacY contained 1 mM DTT in addition. A solutions were made from NA solutions by adding the respective sugar at a given concentration to induce the symport reaction. Sugar concentration jumps initiated sugar-proton symport, and charge transfer was measured by capacitive coupling. Therefore, only transient currents were recorded.
(§7) Each dataset represented with error bars was generated by performing the same experiment on multiple sensors (n ≥ 3). Error bars represent standard deviations of the average value. When peak currents are averaged across sensors, datasets are normalized before averaging. When the protein catalyzes transport and PSS currents are negligible, the peak current of the transient represents a good approximation of the current generated by the steady-state symport activity of the transporter. In most cases, peak currents have been used to derive kinetic and thermodynamic parameters according to the equations given in Figure 2 (KM, Imax ∼ Vmax, Hill coefficient n), Figure 4 (KD and rate constants for sugar binding kon and release koff), and Figure 6 (pKa for proton binding and pKb for proton release). Reconstruction of transporter currents for analysis of biphasic currents has been performed as described previously ([70]). This is required when transport and PSS currents are observed at the same time.

[2] = target: T2, Q175I/L297F XylE (Escherichia coli, UniProt P0AGF4, L297F/Q175I); test: biochemical
T2 construct: made in house; host or cells: E. coli BL21 DE3
T2 sequence (P0AGF4 whole entry Q175I/L297F): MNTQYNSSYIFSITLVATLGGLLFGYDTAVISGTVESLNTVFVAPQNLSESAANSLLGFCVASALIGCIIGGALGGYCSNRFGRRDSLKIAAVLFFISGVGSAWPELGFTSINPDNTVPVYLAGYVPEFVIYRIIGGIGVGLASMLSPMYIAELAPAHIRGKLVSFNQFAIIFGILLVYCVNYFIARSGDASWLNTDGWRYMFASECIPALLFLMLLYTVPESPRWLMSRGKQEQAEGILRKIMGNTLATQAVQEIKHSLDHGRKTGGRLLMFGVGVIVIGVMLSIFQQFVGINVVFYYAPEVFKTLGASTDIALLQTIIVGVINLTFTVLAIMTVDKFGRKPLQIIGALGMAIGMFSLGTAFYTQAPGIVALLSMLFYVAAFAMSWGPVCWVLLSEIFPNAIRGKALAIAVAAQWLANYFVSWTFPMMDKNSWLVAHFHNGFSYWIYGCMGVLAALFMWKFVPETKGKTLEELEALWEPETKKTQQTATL
Experimental: as §1
as §2, with “For wt LacY and mutant proteins, this procedure was not successful.” left out
as §3, §4, §5, §6, §7

[3] = target: T1, D27N XylE; settings: relative to D-xylose in wt XylE (100%); cited from earlier work
[4] = target: T1, D27N XylE; settings: cited from earlier work
[5] = test system: XylE; settings: radioactively labeled sugars; read-out: KM, literature; cited from earlier work
[6] = target: XylE; design: method as in PMID 23075985; settings: read-out: KD, isothermal titration calorimetry; cited from earlier work
[7] = target: T3, wt XylE (Escherichia coli, UniProt P0AGF4); settings: cited from earlier work
T3 sequence (P0AGF4 whole entry): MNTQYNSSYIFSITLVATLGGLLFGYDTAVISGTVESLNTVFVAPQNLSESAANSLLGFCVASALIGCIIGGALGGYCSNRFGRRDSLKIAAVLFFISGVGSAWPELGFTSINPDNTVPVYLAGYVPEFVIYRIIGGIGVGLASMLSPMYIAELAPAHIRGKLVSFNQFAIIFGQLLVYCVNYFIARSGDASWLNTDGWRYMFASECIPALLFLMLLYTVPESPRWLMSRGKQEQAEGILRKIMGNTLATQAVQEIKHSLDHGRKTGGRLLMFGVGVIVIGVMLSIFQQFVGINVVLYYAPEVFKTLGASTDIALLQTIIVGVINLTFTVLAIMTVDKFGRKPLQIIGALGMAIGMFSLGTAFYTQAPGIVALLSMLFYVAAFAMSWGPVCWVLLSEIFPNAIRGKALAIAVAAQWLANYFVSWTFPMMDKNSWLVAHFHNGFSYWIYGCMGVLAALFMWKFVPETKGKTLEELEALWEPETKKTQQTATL

[8] = target: T3, wt XylE; test: biochemical; design: made in house; host or cells: E. coli BL21 DE3
Experimental: as §1, §2, §3, §4, §5, §6, §7

[9] = target: T3, wt XylE; design: made in house; host or cells: E. coli BL21 DE3; settings: relative to D-xylose in wt XylE (100%); cited from earlier work

T1 sequence (P0AGF4 whole entry D27N): as the sequence (P0AGF4 whole entry Q175I/L297F) above, with D27N, I175Q, F297L counted along it

Question: With `OC1OC[C@@H](O)[C@H](O)[C@H]1O` (stereo partly drawn) [D-xylose] as the molecule, how does the Kd ([1]; KD (mM) mut, pH 7.6, hyperbolic fit of peak currents, in Table 3 headed EC50) read?
Answer: 1 ± 0.1 mM

Question: What about the Kd ([1]; KD from fit of concentration-dependent kobs, pH 7.6) of the same molecule?
Answer: 5.5 ± 2.1 mM

Question: And the “Imax (nA) slow component” value ([1]; pH 7.6)?
Answer: <0.05 nA

Question: What about the “Q (pC) Mut, transferred charge” value ([1]; pH 7.6, 30 mM substrate) of the same molecule?
Answer: 6.8 ± 1.5 (pH 7.6) pC

Question: And the “IPeak (pA) fast component” value ([1]; pH 7.6, saturating substrate)?
Answer: 500 pA and 500 ± 100 pA

Question: What about the “kobs (s^−1) mut” value ([1]; saturating substrate (30 mM), kobs = 1/τ, monoexponential fit, limited by time resolution) of the same molecule?
Answer: 300 ± 30 s⁻¹

Question: And the EC50 ([2]; EC50 (mM) (KM for transport, slow component), pH 7.6)?
Answer: ~1.5 mM

Question: What about the “Imax slow component normalized to D-xylose transport in wt XylE (100%)” value ([2]; pH 7.6) of the same molecule?
Answer: 22%

Question: What about the “Imax (nA) slow component” value ([2]; pH 7.6, reconstructed transporter current) of the same molecule?
Answer: 0.4 ± 0.1 nA

Question: What about the “IPeak (pA) fast component” value ([2]; pH 7.6, saturating substrate) of the same molecule?
Answer: 520 ± 90 pA

Question: What about the pKa ([2]; reconstructed transporter currents, acidic range) of the same molecule?
Answer: 4.8 ± 0.1

Question: What about the Radioactive counterflow activity [3] of the same molecule?
Answer: 90%

Question: And the “activity in uptake assay” value [4]?
Answer: < 1%

Question: What about the Km [5] of the same molecule?
Answer: 100 to 500 µM

Question: And the Kd [6]?
Answer: 400 µM

Question: And the Imax ([7]; pH 7.6, main substrate)?
Answer: 1.8 ± 0.5 nA

Question: And the pKa ([7]; pH-dependent peak currents, acidic range)?
Answer: 4.6 ± 0.2

Question: And the pKb1 ([7]; pH-dependent peak currents, alkaline range, double titration)?
Answer: ~7.5

Question: What about the Km ([7]; read-out: KM (mM) Michaelis–Menten equation, pH 7.6, main substrate, in Table 3 headed EC50) of the same molecule?
Answer: ~1.5 mM

Question: And the “PSS current higher than that for D-glucose” value ([8]; independent of pH)?
Answer: 165 pA

Question: What about the “Q (pC) wt, PSS transferred charge” value ([8]; pH 3.2, 30 mM substrate) of the same molecule?
Answer: 4.0 ± 1.4 (pH 3.2) pC

Question: And the “Imax in percent of Imax of the main substrate (D-xylose)” value ([8]; pH 7.6)?
Answer: 100%

Question: And the “IPeak (pA) fast component” value ([8]; pH 7.6, saturating substrate, transport current given as upper limit)?
Answer: <1800 pA

Question: What about the Radioactive counterflow activity [9] of the same molecule?
Answer: 100% ^a

Reference: article PMC8784342, “Investigation of sugar binding kinetics of the E. coli sugar/H^+ symporter XylE using solid-supported membrane-based electrophysiology” (The Journal of Biological Chemistry, 2021)
